pIC50: −log10 of the molar value.
What was measured:
[1] = tested on: intracranially implanted A375 melanoma cells; assay: A375 intracranial mouse model of metastatic melanoma; type: in vivo; conditions: 50 mg/kg IP once a day, two cycles of 5 days, 10 doses; athymic nude mice
[2] = tested on: V600E BRAF melanoma cell lines; assay: 72 h cell viability assay, panel of V600E BRAF melanoma cell lines; type: cell-based; conditions: read-out: IC50, panel of V600E BRAF melanoma cell lines
P-glycoprotein (MDR1) = P-glycoprotein (MDR1) (Homo sapiens, UniProt P08183); assay: MDR1-MDCK transwell assay; conditions: for efflux ratio (ER): 10 μM compound, 90 min, substrate when ER ≥ 2.0
[3] = tested on: MAPK signaling (phospho-MEK1/2, phospho-ERK1/2) in A375 cells; assay: MEK1/2 and ERK1/2 phosphorylation; type: cell-based; conditions: for inhibition of ERK1/2 phosphorylation after 24 h: highest concentrations (10 μM)
[4] = BBB penetrance: brain and serum drug levels after single IV injection; type: in vivo, mice; conditions: for Kp at 60 min: mouse, brain and serum, iv, 25 mg/kg
cell lines with WT BRAF = assay: 72 h cell viability assay, cell lines with WT BRAF; type: cell-based; conditions: read-out: IC50, cell lines with WT BRAF
P-gp [5] = assay: P-gp in vivo assay; conditions: mice
[6] = tested on: AM-38 (V600E BRAF) and U118MG, T98G, U87 (WT BRAF) glioma cell lines; assay: cell culture cytotoxicity against glioma cell lines; type: cell-based
[7] = tested on: MAPK signaling in CHL-1, a WT BRAF melanoma cell line; assay: MEK1/2 and ERK1/2 phosphorylation; type: cell-based; conditions: CHL-1 (WT BRAF), 1 h, identical treatment
[8] = tested on: V600E BRAF tumors in the brain; conditions: cited from earlier work
P-gp [9] = biological target: P-gp (Homo sapiens, UniProt P08183); assay: calcein-AM P-gp inhibition assay in MDR1-MDCK cells; type: cell-based
Sequence of P-gp (Homo sapiens, UniProt P08183) (P08183 whole entry): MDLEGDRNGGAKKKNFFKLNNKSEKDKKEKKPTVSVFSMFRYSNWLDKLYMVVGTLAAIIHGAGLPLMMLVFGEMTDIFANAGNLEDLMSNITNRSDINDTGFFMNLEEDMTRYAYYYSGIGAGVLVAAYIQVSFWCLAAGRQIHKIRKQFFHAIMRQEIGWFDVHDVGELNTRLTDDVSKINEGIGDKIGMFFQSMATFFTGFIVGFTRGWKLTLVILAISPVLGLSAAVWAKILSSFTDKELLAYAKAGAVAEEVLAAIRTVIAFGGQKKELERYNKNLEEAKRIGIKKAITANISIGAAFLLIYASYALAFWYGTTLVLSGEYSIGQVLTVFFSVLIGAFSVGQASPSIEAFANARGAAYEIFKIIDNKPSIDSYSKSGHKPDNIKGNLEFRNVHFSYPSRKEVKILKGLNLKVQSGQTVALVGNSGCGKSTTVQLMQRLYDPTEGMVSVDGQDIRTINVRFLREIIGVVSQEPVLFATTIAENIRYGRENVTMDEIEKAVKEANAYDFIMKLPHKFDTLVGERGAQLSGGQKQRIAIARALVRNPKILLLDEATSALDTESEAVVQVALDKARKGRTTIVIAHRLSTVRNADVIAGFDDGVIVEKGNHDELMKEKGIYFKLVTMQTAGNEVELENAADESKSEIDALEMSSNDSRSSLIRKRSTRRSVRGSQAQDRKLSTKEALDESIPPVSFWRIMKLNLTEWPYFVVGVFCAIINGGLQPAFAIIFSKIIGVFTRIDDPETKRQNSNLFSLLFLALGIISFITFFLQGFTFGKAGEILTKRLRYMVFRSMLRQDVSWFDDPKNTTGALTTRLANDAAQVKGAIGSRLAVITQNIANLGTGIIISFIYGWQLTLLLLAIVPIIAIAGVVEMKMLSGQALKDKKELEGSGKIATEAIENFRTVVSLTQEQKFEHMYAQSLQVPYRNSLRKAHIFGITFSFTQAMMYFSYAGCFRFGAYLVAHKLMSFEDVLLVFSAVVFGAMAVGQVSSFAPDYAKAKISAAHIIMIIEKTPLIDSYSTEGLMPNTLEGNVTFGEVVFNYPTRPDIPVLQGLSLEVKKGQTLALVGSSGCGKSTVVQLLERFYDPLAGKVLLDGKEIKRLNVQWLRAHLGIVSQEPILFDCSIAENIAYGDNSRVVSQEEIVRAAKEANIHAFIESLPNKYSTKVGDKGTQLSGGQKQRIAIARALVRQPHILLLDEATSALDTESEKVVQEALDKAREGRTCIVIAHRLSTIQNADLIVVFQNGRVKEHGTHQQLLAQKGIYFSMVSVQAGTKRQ

Sequence of P-glycoprotein (MDR1) (P08183 whole entry): as above

## CCCS(=O)(=O)Nc1cc(Cl)cc(-c2nc(C(C)(C)C)sc2-c2ccnc(N)n2)c1F [everafenib]
[1]
  median survival: 50.5 days
[2]
  pIC50: 8.00 to 8.70
P-glycoprotein (MDR1); MDR1-MDCK transwell, A–B and B–A directions
  permeability (Papp): 4.9 to 6.4 ×10⁻⁶ cm/s
[3]; 1 h, 1 μM everafenib, 10 μM everafenib-CO2H
  inhibition of MAPK signaling (MEK1/2 and ERK1/2 phosphorylation): strongly inhibited
[3]
  inhibition of ERK1/2 phosphorylation after 24 h: sustained
[4]; mice, 60 min after single 25 mg/kg IV injection
  brain-to-serum ratio: 0.286 ng/g:ng/mL
Cell lines with WT BRAF
  pIC50: < 6.00
P-gp [5]; time not given
  potentiation of brain penetrance with elacridar: did display potentiation with elacridar
[6]; AM-38, glioblastoma cell line with V600E BRAF
  cytotoxicity against AM-38: comparable cytotoxicity to dabrafenib
[6]; U118MG, T98G, U87
  activity against glioma cell-lines with WT BRAF: no activity
[7]
  inhibition of MAPK signaling: not observed

## CC(C)(C)c1nc(-c2cccc(NS(=O)(=O)c3c(F)cccc3F)c2F)c(-c2ccnc(N)n2)s1 [dabrafenib]
[8]; combined with trametinib, melanoma brain metastases, clinical trials
  duration of intracranial response: 6.5 months
[1]
  median survival: 39 days
[3]
  inhibition of ERK1/2 phosphorylation after 24 h: diminished inhibition
[4]
  Kp at 60 min: 0.0014 to 0.0069
P-gp [5]; 15 min, 2.5 mg/kg elacridar IV 30 min before 25 mg/kg compound IV
  fold increase of brain-to-serum ratio by P-gp inhibition (elacridar): 4.3 fold

## Cn1cnc2c(F)c(Nc3ccc(Br)cc3F)c(C(=O)NOCCO)cc21 [binimetinib]
P-glycoprotein (MDR1); MDR1-MDCK transwell
  efflux ratio (ER): high ERs

## CC(C)(C)c1ccc(C(O)CCCN2CCC(C(O)(c3ccccc3)c3ccccc3)CC2)cc1 (stereo not shown) [terfenadine]
P-glycoprotein (MDR1); human, MDCK-MDR1
  Papp at 90 min, 10 μM: 1.2 ×10⁻⁶ cm/s

## COc1cc2c(cc1OC)CN(CCc1ccc(NC(=O)c3cccc4c(=O)c5cccc(OC)c5[nH]c34)cc1)CC2 [elacridar]
P-gp [9]
  P-gp inhibition (calcein-AM fluorescence): robust inhibition

## COC(=O)N[C@@H](C)CNc1nccc(-c2cn(C(C)C)nc2-c2cc(Cl)cc(NS(C)(=O)=O)c2F)n1 [encorafenib]
[4]
  Kp at 60 min: 0.0014 to 0.0069

## COc1cc2nc(N3CCN(C(=O)c4ccco4)CC3)nc(N)c2cc1OC [prazosin]
P-glycoprotein (MDR1); MDR1-MDCK transwell
  efflux ratio (ER): high ERs

## CCCS(=O)(=O)Nc1ccc(F)c(C(=O)c2c[nH]c3ncc(-c4ccc(Cl)cc4)cc23)c1F [vemurafenib]
[8]; pleomorphic xanthoastrocytoma patients, histology agnostic trial
  patients responding: four out of seven
P-glycoprotein (MDR1); MDR1-MDCK transwell
  efflux ratio (ER): high ERs

## CCCS(=O)(=O)Nc1ccc(F)c(C(=O)c2c[nH]c3ncc(Cl)cc23)c1F [PLX4720]
[3]
  inhibition of ERK1/2 phosphorylation after 24 h: diminished inhibition
[4]
  Kp at 60 min: 0.0014 to 0.0069

## C=C[C@H]1C[N@@]2CC[C@H]1C[C@@H]2[C@@H](O)c1ccnc2ccc(OC)cc12 [quinidine]
P-glycoprotein (MDR1); MDR1-MDCK transwell
  efflux ratio (ER): high ERs
P-gp [9]
  P-gp inhibition (calcein-AM fluorescence): robust inhibition

## COC(=O)c1cn2c3c(c(N4CCN(C)CC4)c(F)cc3c1=O)OC[C@@H]2C [compound 7]
P-glycoprotein (MDR1); MDR1-MDCK transwell
  efflux ratio (ER): 5.66

Source: publication PMC9612427 (Journal of the American Chemical Society, 2022)
